Target: T1, mutant G12C K-RAS (Homo sapiens, UniProt P01116, G12C)
T1 construct: made in house; host or cells: E. coli BL21
Assay: covalent adduct formation (CAF) with mutant G12C K-RAS
Type: binding
Details: for % CAF @ 10 μM,1 h: Table 6; for % CAF (60 min): Table 2, Pyrimidone Core-Morpholine Substituted, after 60 minutes at 10 micromolar; for % CAF @ 10 uM, 1 h: Table 5
Experimental: Embodiments disclosed herein are further illustrated by the following examples in Tables 1-4 and the Examples hereinbelow. The Tables indicate the compound number, structure, the observed mass spectral molecular weight peak, and covalent adduct formation (CAF) with a mutant G12C K-RAS after 60 minutes at a concentration of 10 micromolar.

SMILES | % CAF @ 10 μM,1 h | also measured
C=CC(=O)N1C[C@H](C)N(c2nc(=O)n3c4c(c(-c5c(C)ccc6[nH]ncc56)c(Cl)cc24)OC[C@H]3CCCN2C[C@@H]3C[C@H]2CO3)C[C@H]1C (atropisomer, axis not shown) [Example 326, (3R,10R)-3-(3-((1S,4S)-2-oxa-5-azabicyclo[2.2.1]heptan-5-yl)propyl)-7-((2S,5R)-4-acryloyl-2,5-dimethylpiperazin-1-yl)-9-chloro-10-(5-methyl-1H-indazol-4-yl)-2,3-dihydro-5H-[1,4]oxazino[2,3,4-ij]quinazolin-5-one] | 94.2% | 
C=CC(=O)N1C[C@H](C)N(c2nc(=O)n3c4c(c(-c5ccc(F)cc5F)c(Cl)cc24)OC[C@@H]3CN2CCN(C)CC2)C[C@H]1C [Example 257, (3S)-7-((2S,5R)-4-acryloyl-2,5-dimethylpiperazin-1-yl)-9-chloro-10-(2,4-difluorophenyl)-3-((4-methylpiperazin-1-yl)methyl)-2H-[1,4]oxazino[2,3,4-ij]quinazolin-5(3H)-one] | 94.8% | 
C=CC(=O)N1C[C@H](C)N(c2nc(=O)n3c4c(c(-c5ccc(F)cc5F)c(Cl)cc24)OCC3CN(C)C)C[C@H]1C (stereo partly drawn) [Example 35, 7-((2S,5R)-4-acryloyl-2,5-dimethylpiperazin-1-yl)-9-chloro-10-(2,4-difluorophenyl)-3-((dimethylamino)methyl)-2H-[1,4]oxazino[2,3,4-ij]quinazolin-5(3H)-one] |  | % CAF (60 min): 84.6%
C=CC(=O)N1C[C@H](C)N(c2nc(=O)n3c4c(c(-c5c(O)cccc5F)c(Cl)cc24)OC[C@H]3CO)C[C@H]1C [Example 33, (3R,10S)-7-((2S,5R)-4-acryloyl-2,5-dimethylpiperazin-1-yl)-9-chloro-1-(2-fluoro-6-hydroxyphenyl)-3-(hydroxymethyl)-2H-[1,4]oxazino[2,3,4-ij]quinazolin-5(3H)-one] |  | % CAF (60 min): 87.3%
C=CC(=O)N1C[C@H](C)N(c2nc(=O)n3c4c(c(-c5c(O)cccc5F)c(Cl)cc24)OC[C@H]3Cn2cccn2)C[C@H]1C (atropisomer, axis not shown) [Example 246, (3R,10S)-3-((1H-pyrazol-1-yl)methyl)-7-((2S,5R)-4-acryloyl-2,5-dimethylpiperazin-1-yl)-9-chloro-10-(2-fluoro-6-hydroxyphenyl)-2H-[1,4]oxazino[2,3,4-ij]quinazolin-5(3H)-one] | 97.4% | 
C=CC(=O)N1C[C@H](C)N(c2nc(=O)n3c4c(c(-c5c(O)cccc5F)c(Cl)cc24)OC[C@@H]3CN2CCN(C)CC2)C[C@H]1C (atropisomer, axis not shown) [Example 305, (3S,10R)-7-((2S,5R)-4-acryloyl-2,5-dimethylpiperazin-1-yl)-9-chloro-10-(2-fluoro-6-hydroxyphenyl)-3-((4-methylpiperazin-1-yl)methyl)-2,3-dihydro-5H-[1,4]oxazino[2,3,4-ij]quinazolin-5-one] | 0% | 
C=CC(=O)N1C[C@H](C)N(c2nc(=O)n3c4c(c(-c5c(F)ccc6[nH]nnc56)ccc24)OCC3)C[C@H]1C [Example 223, 7-((2S,5R)-4-acryloyl-2,5-dimethylpiperazin-1-yl)-10-(5-fluoro-1H-benzo[d][1,2,3]triazol-4-yl)-2,3-dihydro-5H-[1,4]oxazino[2,3,4-ij]quinazolin-5-one] | 0% | 
C=CC(=O)N1CCN(c2nc(=O)n3c4c(c(-c5c(O)cccc5F)c(Cl)cc24)OC[C@@H]3CN2CCOCC2)[C@@H](C)C1 [Example 195, (3S,10R)-7-((S)-4-acryloyl-2-methylpiperazin-1-yl)-9-chloro-10-(2-fluoro-6-hydroxyphenyl)-3-(morpholinomethyl)-2,3-dihydro-5H-[1,4]oxazino[2,3,4-ij]quinazolin-5-one] | 0% | 
C=CC(=O)N1C[C@H](C)N(c2nc(=O)n3c4c(c(-c5ccc(F)cc5F)c(Cl)cc24)OC[C@H]3CCCN2C3CCC2CN(C)C3)C[C@H]1C [Example 311, (3R)-7-((2S,5R)-4-acryloyl-2,5-dimethylpiperazin-1-yl)-9-chloro-10-(2,4-difluorophenyl)-3-(3-(3-methyl-3,8-diazabicyclo[3.2.1]octan-8-yl)propyl)-2,3-dihydro-5H-[1,4]oxazino[2,3,4-ij]quinazolin-5-one] | 64.1% | 
C=CC(=O)N1C[C@H](C)N(c2nc(=O)n3c4c(c(-c5ccc(F)cc5F)c(Cl)cc24)OC[C@@H]3CCN2CCOCC2)C[C@H]1C [Example 217, (3S)-7-((2S,5R)-4-acryloyl-2,5-dimethylpiperazin-1-yl)-9-chloro-10-(2,4-difluorophenyl)-3-(2-morpholinoethyl)-2,3-dihydro-5H-[1,4]oxazino[2,3,4-ij]quinazolin-5-one] | 83.4% | 
C=CC(=O)N1C[C@H](C)N(c2nc(=O)n3c4c(c(-c5ccc(F)cc5F)c(Cl)cc24)OC[C@H]3CN2CCS(=O)(=O)CC2)C[C@H]1C [Example 268, (3R)-7-((2S,5R)-4-acryloyl-2,5-dimethylpiperazin-1-yl)-9-chloro-10-(2,4-difluorophenyl)-3-((1,1-dioxidothiomorpholino)methyl)-2H-[1,4]oxazino[2,3,4-ij]quinazolin-5(3H)-one] | 68% | 
C=CC(=O)N1CCN(c2nc(=O)n3c4c(c(-c5ccc(F)cc5F)c(Cl)cc24)SC[C@H]3CN2CCN(CC(F)F)CC2)[C@@H](C)C1 [Example 70, (3R)-7-((S)-4-acryloyl-2-methylpiperazin-1-yl)-9-chloro-3-((4-(2,2-difluoroethyl)piperazin-1-yl)methyl)-10-(2,4-difluorophenyl)-2,3-dihydro-5H-[1,4]thiazino[2,3,4-ij]quinazolin-5-one] |  | % CAF @ 10 uM, 1 h: 94%
C=CC(=O)N1CCN(c2nc(=O)n3c4c(c(-c5ccc(F)cc5F)c(C(F)(F)F)cc24)SCC3)C2CS(=O)(=O)CC21 (stereo not shown) [Example 100, 7-(4-acryloyl-6,6-dioxidohexahydrothieno[3,4-b]pyrazin-1(2H)-yl)-10-(2,4-difluorophenyl)-9-(trifluoromethyl)-2,3-dihydro-5H-[1,4]thiazino[2,3,4-ij]quinazolin-5-one] |  | % CAF @ 10 uM, 1 h: 94%
C=CC(=O)N1CCN(c2nc(=O)n3c4c(c(-c5c(O)cccc5F)c(Cl)cc24)OC[C@@H]3CO)[C@@H](C)C1 (single isomer, unassigned) [Example 25] |  | % CAF (60 min): 84.7%
C=CC(=O)N1C[C@H](C)N(c2nc(=O)n3c4c(c(-c5ccc(F)cc5F)c(Cl)cc24)OC[C@H]3Cn2cccn2)C[C@H]1C [Example 234, (3R)-3-((1H-pyrazol-1-yl)methyl)-7-((2S,5R)-4-acryloyl-2,5-dimethylpiperazin-1-yl)-9-chloro-10-(2,4-difluorophenyl)-2H-[1,4]oxazino[2,3,4-ij]quinazolin-5(3H)-one] | 71.3% | 
C=CC(=O)N1CCN(c2nc(=O)n3c4c(c(-c5c(O)cccc5F)c(Cl)cc24)OC[C@@H]3CN2CCOCC2)[C@@H](C)C1 [Example 196, (3S,10S)-7-((S)-4-acryloyl-2-methylpiperazin-1-yl)-9-chloro-10-(2-fluoro-6-hydroxyphenyl)-3-(morpholinomethyl)-2,3-dihydro-5H-[1,4]oxazino[2,3,4-ij]quinazolin-5-one] | 97.6% | 
C=CC(=O)N1C[C@H](C)N(c2nc(=O)n3c4c(c(-c5ccc(F)cc5F)c(Cl)cc24)OC[C@@H]3CCCN2[C@@H]3CC[C@H]2COC3)C[C@H]1C [Example 252, (3S)-3-(3-((1R,5S)-3-oxa-8-azabicyclo[3.2.1]octan-8-yl)propyl)-7-((2S,5R)-4-acryloyl-2,5-dimethylpiperazin-1-yl)-9-chloro-10-(2,4-difluorophenyl)-2H-[1,4]oxazino[2,3,4-ij]quinazolin-5(3H)-one] | 60.5% | 
C=CC(=O)N1C[C@H](C)N(c2nc(=O)n3c4c(c(-c5ccc(F)cc5F)c(Cl)cc24)OC[C@H]3CN2CCN(C)CC2=O)C[C@H]1C [Example 280, (3R)-7-((2S,5R)-4-acryloyl-2,5-dimethylpiperazin-1-yl)-9-chloro-10-(2,4-difluorophenyl)-3-((4-methyl-2-oxopiperazin-1-yl)methyl)-2H-[1,4]oxazino[2,3,4-ij]quinazolin-5(3H)-one] | 57.5% | 
C=CC(=O)N1C[C@H](C)N(c2nc(=O)n3c4c(c(-c5ccc(F)cc5F)c(Cl)cc24)OC[C@@H]3COC[C@H]2CCCN2C)C[C@H]1C [Example 277, (3S)-7-((2S,5R)-4-acryloyl-2,5-dimethylpiperazin-1-yl)-9-chloro-10-(2,4-difluorophenyl)-3-((((R)-1-methylpyrrolidin-2-yl)methoxy)methyl)-2H-[1,4]oxazino[2,3,4-ij]quinazolin-5(3H)-one] | 76.9% | 
C=CC(=O)N1C[C@H](C)N(c2nc(=O)n3c4c(c(-c5c(O)cccc5F)c(Cl)cc24)OC[C@@H]3CN2CCOCC2)C[C@H]1C (atropisomer, axis not shown) [Example 208, (3R,10R)-7-((2S,5R)-4-acryloyl-2,5-dimethylpiperazin-1-yl)-9-chloro-10-(2-fluoro-6-hydroxyphenyl)-3 - (morpholinomethyl)-2,3-dihydro-5H-[1,4]oxazino[2,3,4-ij]quinazolin-5-one] | 0% | 
C=CC(=O)N1C[C@H](C)N(c2nc(=O)n3c4c(c(-c5ccc(F)cc5F)c(Cl)cc24)OC[C@H]3CCCN2CCC(C(=O)NC3CC3)CC2)C[C@H]1C [Example 278] | 98.3% | 
C=CC(=O)N1C[C@H](C)N(c2nc(=O)n3c4c(c(-c5ccc(F)cc5F)c(Cl)cc24)OC[C@H]3COC[C@H]2CCCN2C)C[C@H]1C [Example 287, (3R)-7-((2S,5R)-4-acryloyl-2,5-dimethylpiperazin-1-yl)-9-chloro-10-(2,4-difluorophenyl)-3-((((R)-1-methylpyrrolidin-2-yl)methoxy)methyl)-2H-[1,4]oxazino[2,3,4-ij]quinazolin-5(3H)-one] | 91.6% | 

Reference: patent publication US12162893B2 (Erasca, Inc., priority 2020, dated 2024)
